# Test results from PMC12006963, “Application of Deuterium in an M1 Positive Allosteric Modulator Back-Up Program: The Discovery of VU6045422” (ACS Chemical Neuroscience, 2025).
# Legend:
# [1] = Predicted hepatic clearance, hepatic microsomes (dog); format: in vitro ADME
# Method: After a 5 min preincubation, the reaction was initiated by the addition of NADPH (1 mM). At selected time intervals (0, 3, 7, 15, 25, and 45 min), aliquots were taken and subsequently placed into a 96-well plate containing cold acetonitrile with internal standard (50 ng/mL carbamazepine). Plates were then centrifuged at 3000 rcf (4 °C) for 10 min, and the supernatant was transferred to a separate 96-well plate and diluted 1:1 with water for LC/MS/MS analysis. The in vitro half-life ( 1/2, min, Eq. 1), intrinsic clearance (CLint, mL/min/kg, Eq. 2), and subsequent predicted hepatic clearance (CLhep, mL/min/kg, Eq. 3) was determined employing the […]
# where k represents the slope from linear regression analysis of the natural log percent remaining of a test compound as a function of incubation time […]
# (2) CLint = in vitroT1/2 x mg microsomes x gram liver x kg body wt ascale-up factors: of 20 (human) or 45 (rat) […]
# where Qh (hepatic blood flow, mL/min/kg) is 21 (human) or 70 (rat).
# LC/MS/MS Bioanalysis of Samples from Plasma Protein Binding and Intrinsic Clearance […]
# Samples were analyzed on a Thermo Electron TSQ Quantum Ultra triple quad mass spectrometer (San Jose, CA) via electrospray ionization (ESI) with two Themo Electron Accella pumps (San Jose, CA), and a Leap Technologies CTC PAL autosampler (Carrboro, NC). Analytes were separated by gradient elution on a dual column system with two Thermo Hypersil Gold (2.1 x 30 mm, 1.9 µm) columns (San Jose, CA) thermostated at 40 °C. HPLC mobile phase A was 0.1% formic acid in water and mobile phase B was 0.1% formic acid in acetonitrile. The gradient started […]
# for 0.2 min; returned to 10% B in 0.1 min. The total run time was 1.3 min and the HPLC flow rate was 0.8 mL/min. While pump 1 ran the gradient method, pump 2 equilibrated the alternate column isocratically at 10% B. Compound optimization, data collection, and processing was performed using Thermo Electron's QuickQuan software (v2.3) and Xcalibur (v2.0.7 SP1).
# In vivo DMPK experimental:
# Determination of brain to plasma ratio: […]
# [2] = In vivo IV/PO pharmacokinetics, rat; settings: rat (SD), dose iv/po mg/kg: 1 1/3, 3 1/10, 5 1/10; for clearance / Vd / half-life: Sprague-Dawley, plasma, 1 mg/kg; for clearance: read-out: CLp; for Vd: read-out: Vss; for half-life: read-out: elimination t1/2 (converted)
# Brain homogenate binding = format: in vitro ADME; settings: pH 7.4; rat brain homogenate; read-out: fu,brain
# Method: Plasma protein binding and Brain homogenate binding: Determination of fraction unbound (f u) in plasma was conducted in vitro via equilibrium dialysis using HTDialysis (HTD) membrane plates. The top half of the plate was filled with 100 uL of Dubelco’s Phosphate Buffered Saline, pH 7.4 (DPBS). Compounds were diluted into plasma from each species (5 µM final concentration), which was aliquoted in triplicate to the ‘bottom half’ of the prepared HTD plate wells. The HTD plate was sealed and incubated for 6 hours at 37 °C. Following incubation, each well (both top and bottom halves) were transferred (20 µL) to the corresponding wells of a 96-shallow-well (V-bottom) plate. The daughter plates were then matrix-matched (DPBS side wells received equal volume of plasma, and plasma side wells received equal volume of DPBS), and extraction solution (120 µL; acetonitrile containing 50 nM carbamazepine as IS) was added to all wells of both daughter plates to precipitate protein and extract test article. The plates were then sealed and centrifuged (3500 rcf) for 10 minutes at ambient temperature. […]
# The unbound fraction (f u) was calculated following the equation below, and mean values for each species were calculated from 3 replicates.
# A similar approach was used to determine the degree of brain homogenate binding, which employed the same methodology and procedure with the following modifications: 1) a final compound concentration of 1 μM was used, 2) naïve rat brains were homogenized in DPBS (1:3 composition of brain: DPBS, w/w) using a Mini-Bead Beater™ machine in order to obtain brain homogenate, which was then treated in the same manner as the plasma samples in the previously described plasma protein binding assay. Fraction unbound for both plasma and brain samples was determined using Equation 4. […]
# The diluted fraction unbound (fu2) in brain was calculated in the same manner by using brain homogenate rather than plasma. Undiluted fraction unbound for the brain was calculated using […]
SMILES,Predicted CLhep [1],clearance [2],Vd [2],half-life [2],F (%) po [2],"fraction unbound at 6 h, 1 µM (Brain homogenate binding)"
[2H]C1([2H])c2ncccc2C(=O)N1Cc1c(F)cc(-c2cccc3nn(C)cc23)cc1F [compound 3],14.4 mL/min/kg,5.5 mL/min/kg,1.4 L/kg,3 h,100%,0.031
[2H]C1([2H])c2ncccc2C(=O)N1Cc1c(F)cc(-c2cccc3nn(C([2H])([2H])[2H])cc23)cc1F [compound 5],8.8 mL/min/kg,4.8 mL/min/kg,1.1 L/kg,3.6 h,100%,0.036
Cn1cc2c(-c3cc(F)c(CN4Cc5ncccc5C4=O)c(F)c3)cccc2n1 [compound 1],5.5 mL/min/kg,3 mL/min/kg,0.67 L/kg,3 h,93%,0.04
